# Data taken from ChEMBL document CHEMBL6134901 (J Med Chem, 2025).
# Activity calls are given as the source filed them. No cut-off for these calls is given here.
# How the values were obtained:
# Clostridioides difficile [1] = assay: Inhibition of spore cortex degradation in Clostridium difficile assessed as greenish-blue spheres at 50 uM by Wirtz-Conklin staining based analysis; assay type: functional, organism-based
# Clostridioides difficile [2] = assay: Antibacterial activity against Clostridium difficile ATTC43255 assessed as spore germination inhibition at 45 uM incubated for 60 mins by spectrometry relative to control; assay type: functional; conditions: ATTC43255, 1 h
# Clostridioides difficile [3] = assay: Antibacterial activity against Clostridium difficile ATTC43255 assessed as spore germination inhibition incubated for 60 mins by spectrometry; assay type: functional, organism-based; conditions: for IC50: ATTC43255, 1 h
# [4] = Cytotoxicity against human HepG2 cells incubated for 24 hrs by XTT assay; assay type: toxicity, cell-based; conditions: read-out: LD50
# Clostridioides difficile [5] = assay: Antibacterial activity against metronidazole-resistant Clostridium difficile […] clinical isolate; assay type: functional
# Bacteroides fragilis = assay: Antibacterial activity against Bacteroides fragilis HM-709; assay type: functional
# Eubacterium sp. = assay: Antibacterial activity against Eubacterium sp. HM-178; assay type: functional
# Veillonella = assay: Antibacterial activity against Veillonella sp. HM-49; assay type: functional
# [6] = test system: Limosilactobacillus reuteri; assay: Antibacterial activity against vancomycin-susceptible Lactobacillus reuteri HM-102 clinical isolate; assay type: functional
# Klebsiella pneumoniae = assay: Antibacterial activity against Klebsiella pneumoniae ATCC 700603; assay type: functional
# Acinetobacter baumannii = assay: Antibacterial activity against Acinetobacter baumannii ATCC 17961; assay type: functional
# Pseudomonas aeruginosa = assay: Antibacterial activity against Pseudomonas aeruginosa ATCC 27853; assay type: functional
# Klebsiella aerogenes = assay: Antibacterial activity against Enterobacter aerogenes ATCC 35029; assay type: functional
# Escherichia coli = assay: Antibacterial activity against Escherichia coli ATCC 25922; assay type: functional
# [7] = test system: Staphylococcus haemolyticus; assay: Antibacterial activity against Staphylococcus haemolyticus ATCC 29970; assay type: functional
# Enterococcus faecalis = assay: Antibacterial activity against Enterococcus faecalis ATCC 29212; assay type: functional
# Staphylococcus aureus [8] = assay: Inhibition of Staphylococcus aureus COL PBP1 at 5 ug/ml measured for 24 hrs by absorbance based assay; conditions: dose 5.0 µg/ml
# Staphylococcus aureus [9] = assay: Inhibition of Staphylococcus aureus COL PBP2 at 5 ug/ml measured for 24 hrs by absorbance based assay; conditions: dose 5.0 µg/ml
# Bacteria [10] = assay: (§1) Binding affinity to bacterial prepro-SleC assessed as dissociation constant by MST assay
# [11] = Binding affinity to bacterial pro-SleC assessed as dissociation constant by MST assay; set-up: species or system Bacteria
# Bacteria [12] = assay: (§2) Binding affinity to bacterial GerS assessed as dissociation constant by MST assay
# [13] = (§3) Binding affinity to bacterial cwID assessed as dissociation constant by MST assay; set-up: species or system Bacteria
# Bacteria [14] = assay: (§4) Binding affinity to bacterial CspA assessed as dissociation constant by MST assay
# [15] = Binding affinity to bacterial CspB assessed as dissociation constant by MST assay; set-up: species or system Bacteria
# Bacteria [16] = assay: Binding affinity to bacterial CspC assessed as dissociation constant by MST assay
# Bacillus subtilis = assay: Inhibition of Bacillus subtilis sacculi-derived SleC
# [17] = Binding affinity to bacterial SleC assessed as dissociation constant by MST assay; set-up: species or system Bacteria
# Clostridioides difficile [18] = assay: Antibacterial activity against Clostridium difficile ATTC43255 assessed as inhibition of vegetative cells; assay type: functional, organism-based
# Clostridioides difficile [19] = assay: Antibacterial activity against Clostridium difficile ATTC43255 assessed as inhibition of vegetative cells in presence of vancomycin; assay type: functional, organism-based
# Clostridioides difficile [20] = assay: Antibacterial activity against Clostridium difficile BAA1870 assessed as spore germination inhibition; assay type: functional, organism-based
# Clostridioides difficile [21] = assay: Post-antibiotic effect in Clostridium difficile ATTC43255 assessed as spore germination inhibition at 60 uM incubated for 1 hr followed by fresh medium replacement without compound measured up to 8 hrs; assay type: functional, organism-based
# [22] = Drug uptake in blood of ICR mouse assessed as drug absorption from intestines at 30 mg/kg, po measured for 1 to 24 hrs by UPLC analysis; assay type: ADME, organism-based; conditions: in vivo, time 1-24 hrs
# [23] = Cmax in ICR mouse at 30 mg/kg, po measured for 1 to 24 hrs by UPLC analysis; assay type: ADME, organism-based; conditions: in vivo, time 1-24 hrs
# [24] = Terminal half life in ICR mouse at 30 mg/kg, po measured for 1 to 24 hrs by UPLC analysis; assay type: ADME, organism-based; conditions: in vivo, time 1-24 hrs, read-out: beta t1/2 (converted)
# [25] = AUC (0 to 24 hrs) in ICR mouse at 30 mg/kg, po measured for 1 to 24 hrs by UPLC analysis; assay type: ADME, organism-based; conditions: in vivo, time 1-24 hrs
# [26] = Drug concentration in feces of ICR mouse at 30 mg/kg, po measured after 8 hrs by UPLC analysis; assay type: ADME, organism-based; conditions: faeces, read-out: Ct
# [27] = Drug concentration in feces of ICR mouse at 30 mg/kg, po measured after 24 hrs by UPLC analysis; assay type: ADME, organism-based; conditions: in vivo
# [28] = Cmax in feces of Golden Syrian hamster at 5 mg/kg, po bid measured for 5 days; assay type: ADME, organism-based, Mesocricetus auratus; conditions: faeces, time 5 day
# [29] = Drug concentration in liver of Golden Syrian hamster at 5 mg/kg, po bid measured after 8 hrs; assay type: ADME, organism-based, Mesocricetus auratus; conditions: read-out: Ct
# [30] = Drug concentration in brain of Golden Syrian hamster at 5 mg/kg, po bid measured after 8 hrs; assay type: ADME, organism-based, Mesocricetus auratus; conditions: read-out: Ct
# [31] = Drug concentration in kidney of Golden Syrian hamster at 5 mg/kg, po bid measured after 8 hrs; assay type: ADME, organism-based, Mesocricetus auratus; conditions: read-out: Ct
# Clostridioides difficile [32] = assay: Antibacterial activity against fidaxomicin-resistant Clostridium difficile RMA23691 clinical isolate; assay type: functional
# Clostridioides difficile [33] = assay: Antibacterial activity against Clostridium difficile RMA26675; assay type: functional
# Clostridioides difficile [34] = assay: Antibacterial activity against Clostridium difficile RMA23828; assay type: functional
# Fusobacterium nucleatum = assay: Antibacterial activity against methicillin/oxacillin/tetracycline-resistant mecA-positive Fusobacterium nucleatum HM-992; assay type: functional
# Lactobacillus gasseri = assay: Antibacterial activity against Lactobacillus gasseri HM-644; assay type: functional
# Bifidobacterium longum = assay: Antibacterial activity against Bifidobacterium longum HM-846; assay type: functional
# Staphylococcus aureus [35] = assay: Antibacterial activity against Staphylococcus aureus ATCC 29213; assay type: functional
# Staphylococcus aureus [36] = assay: Antibacterial activity against Staphylococcus aureus NRS100; assay type: functional
# Staphylococcus aureus [37] = assay: Antibacterial activity against Staphylococcus aureus NRS119; assay type: functional
# Staphylococcus aureus [38] = assay: Antibacterial activity against vancomycin-resistant Staphylococcus aureus VRS1 clinical isolate; assay type: functional
# [39] = test system: Staphylococcus epidermidis; assay: Antibacterial activity against Staphylococcus epidermidis ATCC 35547; assay type: functional
# Bacillus cereus = assay: Antibacterial activity against Bacillus cereus ATCC 13061; assay type: functional
# Enterococcus faecium [40] = assay: Antibacterial activity against vancomycin-susceptible Enterococcus faecium 119-39A; assay type: functional
# Enterococcus faecium [41] = assay: Antibacterial activity against vancomycin-resistant Enterococcus faecium 106 clinical isolate; assay type: functional
# [42] = as §1; set-up: species or system Bacteria
# Bacteria [43] = assay: Binding affinity to bacterial pdaA assessed as dissociation constant by MST assay
# [44] = as §2; set-up: species or system Bacteria
# Bacteria [45] = assay: as §3
# [46] = as §4; set-up: species or system Bacteria
# [47] = Binding affinity to N-terminal His-tagged full-length Clostridium difficile SleC extracted from Escherichia coli LOBSTR-RIL assessed as dissociation constant by MST assay; set-up: species or system Clostridioides difficile
structure (smiles),measurement,setting,value
Cl.NCc1ccc(-c2nc(-c3ccnc(Oc4ccc(C(F)(F)F)cc4)c3)no2)cc1,inhibition,Clostridioides difficile [1],Active
same,inhibition at 45 µM,Clostridioides difficile [2],84%
same,inhibition,Clostridioides difficile [3],Dose-dependent-effect
same,IC50,Clostridioides difficile [3],14 µM
same,CC50 at 24 h,[4],51 µg/mL
same,MIC,Clostridioides difficile [5],16 µg/mL
same,MIC,Bacteroides fragilis,32 µg/mL
same,MIC,Eubacterium sp.,16 µg/mL
same,MIC,Veillonella,> 128 µg/mL
same,MIC,[6],32 µg/mL
same,MIC,Klebsiella pneumoniae,> 128 µg/mL
same,MIC,Acinetobacter baumannii,> 128 µg/mL
same,MIC,Pseudomonas aeruginosa,> 128 µg/mL
same,MIC,Klebsiella aerogenes,> 128 µg/mL
same,MIC,Escherichia coli,> 128 µg/mL
same,MIC,[7],8 µg/mL
same,MIC,Enterococcus faecalis,4 µg/mL
same,inhibition,Staphylococcus aureus [8],Active
same,inhibition,Staphylococcus aureus [9],Active
same,Activity,Bacteria [10],inactive
same,Kd,[11],16 µM
same,Activity,Bacteria [12],inactive
same,Kd,[13],54 µM
same,Activity,Bacteria [14],inactive
same,Kd,[15],8 µM
same,Activity,Bacteria [16],inactive
same,inhibition,Bacillus subtilis,Active
same,Kd,[17],12 µM
same,IC50,Clostridioides difficile [18],46.2 µM
same,IC50,Clostridioides difficile [19],22.7 µM
same,IC50,Clostridioides difficile [20],13 µM
same,inhibition,Clostridioides difficile [21],Active
same,Drug uptake,[22],Active
same,Cmax,[23],1440 ng/mL
same,half-life,[24],378 min
same,AUC(0-t),[25],17000 ng·h/mL
same,concentration at 8 h,[26],11000 ng/g
same,Ct,[27],Below_limit_of_detection
same,Cmax,[28],~4000 ng/g
same,concentration at 8 h,[29],5600 ng/g
same,concentration at 8 h,[30],15000 ng/g
same,concentration at 8 h,[31],56000 ng/g
Oc1ccc(-c2nc(-c3ccc(OC4CCCC4)cc3)no2)cc1,inhibition at 45 µM,Clostridioides difficile [2],26%
same,IC50,Clostridioides difficile [3],74 µM
same,CC50 at 24 h,[4],22 µg/mL
same,MIC,Clostridioides difficile [5],2 µg/mL
same,MIC,Clostridioides difficile [32],4 µg/mL
same,MIC,Clostridioides difficile [33],4 µg/mL
same,MIC,Clostridioides difficile [34],4 µg/mL
same,MIC,Bacteroides fragilis,2 µg/mL
same,MIC,Eubacterium sp.,0.5 µg/mL
same,MIC,Veillonella,> 128 µg/mL
same,MIC,Fusobacterium nucleatum,2 µg/mL
same,MIC,[6],> 128 µg/mL
same,MIC,Lactobacillus gasseri,> 128 µg/mL
same,MIC,Bifidobacterium longum,1 µg/mL
same,MIC,Klebsiella pneumoniae,> 128 µg/mL
same,MIC,Acinetobacter baumannii,> 128 µg/mL
same,MIC,Pseudomonas aeruginosa,> 128 µg/mL
same,MIC,Klebsiella aerogenes,> 128 µg/mL
same,MIC,Escherichia coli,> 128 µg/mL
same,MIC,Staphylococcus aureus [35],2 µg/mL
same,MIC,Staphylococcus aureus [36],2 µg/mL
same,MIC,Staphylococcus aureus [37],2 µg/mL
same,MIC,Staphylococcus aureus [38],2 µg/mL
same,MIC,[39],2 µg/mL
same,MIC,[7],2 µg/mL
same,MIC,Bacillus cereus,2 µg/mL
same,MIC,Enterococcus faecalis,4 µg/mL
same,MIC,Enterococcus faecium [40],2 µg/mL
same,MIC,Enterococcus faecium [41],2 µg/mL
same,Kd,[42],4.3 µM
same,Kd,[11],91 µM
same,Activity,Bacteria [43],inactive
same,Kd,[44],> 200 µM
same,Activity,Bacteria [45],inactive
same,Kd,[46],> 200 µM
same,Kd,[15],75 µM
same,Kd,[47],> 200 µM
